The source of these data is ChEMBL document CHEMBL5131481, “Topoisomerase IIα inhibitory and antiproliferative activity of dihydroxylated 2,6-diphenyl-4-fluorophenylpyridines: Design, synthesis, and structure-activity relationships” (Bioorg Med Chem Lett, 2022).

As usually defined, the IC50 is the midpoint of a concentration-inhibition curve. What is called inhibition is the percentage by which the read-out fell short of the control.

One assay deals with HCT-15. Kind of assay: Antiproliferative activity against human HCT-15 cells assessed as inhibition of cell proliferation. Format: functional, cell-based.
The subject of the next assay is HeLa. Description: Antiproliferative activity against human HeLa cells assessed as inhibition of cell proliferation. It is filed as functional, cell-based.
For another assay, the system named is T47D. Description: Antiproliferative activity against human T47D cells assessed as inhibition of cell proliferation. Format: functional, cell-based.
The next assay concerns DU-145. Description: Antiproliferative activity against human DU-145 cells assessed as inhibition of cell proliferation. Format: functional, cell-based.
The target in assay [1] is DNA topoisomerase 2-alpha (Homo sapiens) (UniProt P11388). Kind of assay: Inhibition of topoisomerase 2alpha (unknown origin) assessed as relaxation of supercoiled plasmid pBR322 DNA at 100 uM relative to control.

Structures can show the parent of a compound that is named as a salt. Where only a bound is given, the exact number is not on record here.

DNA topoisomerase 2-alpha (Homo sapiens), sequence (P11388 whole entry): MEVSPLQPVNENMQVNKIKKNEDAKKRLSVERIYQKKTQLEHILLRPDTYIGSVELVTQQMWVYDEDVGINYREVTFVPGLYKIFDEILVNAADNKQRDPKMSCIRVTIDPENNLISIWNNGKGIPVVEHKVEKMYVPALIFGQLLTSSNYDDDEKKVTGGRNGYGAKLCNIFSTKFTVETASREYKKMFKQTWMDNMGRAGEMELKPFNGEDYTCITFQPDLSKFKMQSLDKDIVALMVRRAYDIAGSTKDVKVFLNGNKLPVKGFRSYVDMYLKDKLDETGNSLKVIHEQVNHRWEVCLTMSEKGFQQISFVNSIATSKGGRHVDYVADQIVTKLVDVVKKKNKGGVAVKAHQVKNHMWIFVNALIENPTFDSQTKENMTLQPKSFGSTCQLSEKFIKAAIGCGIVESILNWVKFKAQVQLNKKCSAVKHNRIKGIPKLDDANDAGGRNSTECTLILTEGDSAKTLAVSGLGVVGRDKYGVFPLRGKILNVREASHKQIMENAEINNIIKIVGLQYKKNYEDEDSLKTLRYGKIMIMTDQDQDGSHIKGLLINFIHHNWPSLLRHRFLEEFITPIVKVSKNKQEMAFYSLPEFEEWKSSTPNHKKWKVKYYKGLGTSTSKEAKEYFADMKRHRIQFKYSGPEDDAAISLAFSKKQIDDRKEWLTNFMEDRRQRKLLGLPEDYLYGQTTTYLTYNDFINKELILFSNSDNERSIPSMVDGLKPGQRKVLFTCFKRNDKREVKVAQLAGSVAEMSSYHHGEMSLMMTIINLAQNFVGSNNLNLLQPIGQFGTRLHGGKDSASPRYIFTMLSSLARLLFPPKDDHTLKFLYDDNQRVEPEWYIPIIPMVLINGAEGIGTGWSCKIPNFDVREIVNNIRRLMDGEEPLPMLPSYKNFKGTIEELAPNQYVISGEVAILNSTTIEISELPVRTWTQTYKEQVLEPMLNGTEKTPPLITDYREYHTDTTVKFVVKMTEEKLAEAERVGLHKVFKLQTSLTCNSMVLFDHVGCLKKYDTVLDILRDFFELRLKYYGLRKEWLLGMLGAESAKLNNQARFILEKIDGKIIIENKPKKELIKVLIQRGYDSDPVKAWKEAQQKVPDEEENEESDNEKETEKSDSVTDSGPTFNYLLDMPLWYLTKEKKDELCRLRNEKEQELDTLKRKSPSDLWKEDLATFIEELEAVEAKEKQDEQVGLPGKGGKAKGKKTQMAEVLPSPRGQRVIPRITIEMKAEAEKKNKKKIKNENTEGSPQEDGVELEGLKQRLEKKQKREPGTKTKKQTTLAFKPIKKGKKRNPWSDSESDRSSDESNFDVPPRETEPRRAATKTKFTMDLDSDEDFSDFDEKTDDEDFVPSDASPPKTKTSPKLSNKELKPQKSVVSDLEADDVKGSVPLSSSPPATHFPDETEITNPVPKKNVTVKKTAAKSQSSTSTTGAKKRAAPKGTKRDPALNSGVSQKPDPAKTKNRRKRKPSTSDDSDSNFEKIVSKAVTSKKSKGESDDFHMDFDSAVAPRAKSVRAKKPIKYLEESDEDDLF

For `Oc1ccccc1-c1cc(-c2ccc(F)cc2)cc(-c2ccccc2O)n1`, the IC50 with HCT-15, in the assay on HeLa, with T47D and in the assay with DU-145 was more than 50 µM throughout. Also, the inhibition in assay [1] amounted to 7.2%.

`Oc1ccccc1-c1cc(-c2cccc(OC(F)(F)F)c2)cc(-c2ccccc2O)n1`: the IC50 was more than 50 µM in the assay on HCT-15, more than 50 µM with HeLa, more than 50 µM in the assay with T47D and 7.47 µM in the assay on DU-145. The inhibition in assay [1] was 14.8%.

Regarding `Oc1cccc(-c2cc(-c3ccc(C(F)(F)F)cc3)cc(-c3cccc(O)c3)n2)c1`, the IC50 in the assay on HCT-15 was more than 50 µM; in the assay on HeLa, more than 50 µM; in the assay on T47D it was 2.33 µM; in the assay on DU-145 it was 33.5 µM. The inhibition in assay [1] is 24%.

Regarding `Oc1ccc(-c2cc(-c3ccc(C(F)(F)F)cc3)cc(-c3ccccc3O)n2)cc1`, the IC50 in the assay on HCT-15, in the assay on HeLa, in the assay with T47D and in the assay on DU-145 was more than 50 µM in each case. Further, the inhibition in assay [1] is 0.1%.

As for `Oc1ccc(-c2cc(-c3ccccc3OC(F)(F)F)cc(-c3ccccc3O)n2)cc1`, the IC50 in the assay with HCT-15 was determined as 9.82 µM; in the assay on HeLa it was 6.01 µM; with T47D, 2.05 µM; in the assay on DU-145, 4.19 µM. Besides, the inhibition in assay [1] was 0%.

For `Oc1cccc(-c2cc(-c3ccc(OC(F)(F)F)cc3)cc(-c3ccccc3O)n2)c1`, the half-maximal inhibitory concentration (IC50) came to 9.41 µM with HCT-15, 20.6 µM with HeLa, 7.71 µM in the assay on T47D and 21.1 µM with DU-145. Also, the inhibition in assay [1] came to 0%.

`Oc1cccc(-c2cc(-c3ccc(C(F)(F)F)cc3)cc(-c3ccccc3O)n2)c1`: the concentration for half-maximal inhibition (IC50) in the assay on HCT-15, with HeLa, in the assay on T47D and in the assay with DU-145 was more than 50 µM each time. For the same compound, in assay [1], the inhibition came to 0.2%.

Turning to `Oc1ccc(-c2cc(-c3ccc(C(F)(F)F)cc3)cc(-c3ccc(O)cc3)n2)cc1`, the IC50 with HCT-15, with HeLa, in the assay on T47D and in the assay with DU-145 was more than 50 µM in each case. The inhibition in assay [1] was 0.2%.

As for `Oc1ccc(-c2cc(-c3ccccc3C(F)(F)F)cc(-c3ccccc3O)n2)cc1`, the concentration for half-maximal inhibition (IC50) was 8.99 µM with HCT-15, 16.5 µM with HeLa, 7.18 µM in the assay with T47D and 6.69 µM with DU-145. Further, the inhibition in assay [1] is 0%.

Regarding `Oc1cccc(-c2cc(-c3cccc(C(F)(F)F)c3)cc(-c3ccccc3O)n2)c1`, the IC50 came to 6.46 µM with HCT-15, 19.5 µM with HeLa, 6.34 µM in the assay with T47D and 13 µM with DU-145. The inhibition in assay [1] amounted to 0.6%.

In the case of `Oc1ccccc1-c1cc(-c2cccc(F)c2)cc(-c2ccccc2O)n1`, the IC50 in the assay with HCT-15, with HeLa, with T47D and with DU-145 was more than 50 µM throughout. Besides, in assay [1], the inhibition came to 0%.

For the compound `Oc1ccc(-c2cc(-c3cccc(F)c3)cc(-c3ccccc3O)n2)cc1`, the IC50 with HCT-15, with HeLa, with T47D and in the assay on DU-145 was more than 50 µM each time. Besides, the inhibition in assay [1] is 16.3%.

For `Oc1ccc(-c2cc(-c3cccc(OC(F)(F)F)c3)cc(-c3ccc(O)cc3)n2)cc1`, the IC50 in the assay with HCT-15, in the assay on HeLa, with T47D and with DU-145 was more than 50 µM in each case. For the same compound, the inhibition in assay [1] came out at 4.4%.

Consider `Oc1cccc(-c2cc(-c3cccc(F)c3)cc(-c3ccccc3O)n2)c1`, for which the IC50 with HCT-15, in the assay on HeLa, with T47D and with DU-145 was more than 50 µM in each case. For the same compound, in assay [1], the inhibition is 8.8%.

For `Oc1ccc(-c2cc(-c3cccc(OC(F)(F)F)c3)cc(-c3ccccc3O)n2)cc1`, the 50% inhibitory concentration (IC50) in the assay on HCT-15, in the assay with HeLa, in the assay on T47D and in the assay with DU-145 was more than 50 µM each time. The inhibition in assay [1] was determined as 0%.

`COc1cccc2c1C(=O)c1c(O)c3c(c(O)c1C2=O)C[C@@](O)(C(=O)CO)C[C@@H]3O[C@H]1C[C@H](N)[C@H](O)[C@H](C)O1` [DOXORUBICIN HYDROCHLORIDE]: the 50% inhibitory concentration (IC50) with HCT-15 was determined as 1.28 µM; in the assay on HeLa, 5.04 µM; in the assay with T47D it was 4.59 µM; in the assay on DU-145, 5.85 µM.

For the compound `Oc1cccc(-c2cc(-c3cccc(F)c3)cc(-c3cccc(O)c3)n2)c1`, the IC50 in the assay with HCT-15 is 7.86 µM; with HeLa, 1.4 µM; with T47D, 21.3 µM; with DU-145, 23.8 µM. Also, in assay [1], the inhibition worked out at 4.9%.

Consider `Oc1ccc(-c2cc(-c3ccccc3F)cc(-c3ccccc3O)n2)cc1`, for which the IC50 with HCT-15, in the assay with HeLa, in the assay on T47D and with DU-145 was more than 50 µM each time. In assay [1], the inhibition worked out at 0.2%.

Take `Oc1ccccc1-c1cc(-c2ccccc2F)cc(-c2ccccc2O)n1`: the IC50 in the assay on HCT-15, in the assay with HeLa, in the assay on T47D and in the assay with DU-145 was more than 50 µM each time. The inhibition in assay [1] worked out at 10.3%.

On to `Oc1ccccc1-c1cc(-c2ccccc2OC(F)(F)F)cc(-c2ccccc2O)n1`, for which the IC50 was 4.52 µM in the assay with HCT-15, 9.75 µM in the assay on HeLa, 1.73 µM with T47D and 5.85 µM in the assay with DU-145. Also, the inhibition in assay [1] was determined as 12.5%.

Take `Oc1ccc(-c2cc(-c3ccc(F)cc3)cc(-c3ccccc3O)n2)cc1`: the IC50 in the assay on HCT-15, with HeLa, with T47D and in the assay with DU-145 was more than 50 µM in each case. Besides, the inhibition in assay [1] turned out to be 0%.

Take `Oc1ccc(-c2cc(-c3ccccc3F)cc(-c3ccc(O)cc3)n2)cc1`: the IC50 with HCT-15 was 8.18 µM; with HeLa it was more than 50 µM; with T47D it was 15.1 µM; in the assay with DU-145 it was 7.78 µM. The inhibition in assay [1] came out at 0%.

Consider `Oc1cccc(-c2cc(-c3ccc(F)cc3)cc(-c3ccccc3O)n2)c1`, for which the 50% inhibitory concentration (IC50) in the assay with HCT-15, with HeLa, in the assay with T47D and in the assay on DU-145 was more than 50 µM each time. In addition, in assay [1], the inhibition was 1.3%.

Regarding `Oc1cccc(-c2cc(-c3ccccc3OC(F)(F)F)cc(-c3ccccc3O)n2)c1`, the IC50 is 3.24 µM in the assay on HCT-15, 15.2 µM with HeLa, 2.68 µM with T47D and more than 50 µM in the assay with DU-145. Moreover, the inhibition in assay [1] worked out at 0%.

Turning to `Oc1ccc(-c2cc(-c3ccccc3C(F)(F)F)cc(-c3ccc(O)cc3)n2)cc1`, the IC50 in the assay with HCT-15, with HeLa, in the assay with T47D and with DU-145 was more than 50 µM throughout. The inhibition in assay [1] was 0%.

With `Oc1ccccc1-c1cc(-c2cccc(C(F)(F)F)c2)cc(-c2ccccc2O)n1`, the IC50 in the assay with HCT-15, in the assay on HeLa, with T47D and with DU-145 was more than 50 µM in each case. The inhibition in assay [1] was 1.2%.

Turning to `Oc1ccc(-c2cc(-c3cccc(C(F)(F)F)c3)cc(-c3ccccc3O)n2)cc1`, the IC50 with HCT-15, in the assay on HeLa, with T47D and in the assay with DU-145 was more than 50 µM each time. The inhibition in assay [1] is 0.1%.

As to `Oc1cccc(-c2cc(-c3cccc(OC(F)(F)F)c3)cc(-c3cccc(O)c3)n2)c1`, the concentration for half-maximal inhibition (IC50) with HCT-15 is more than 50 µM; with HeLa, more than 50 µM; with T47D, 6.74 µM; in the assay with DU-145, more than 50 µM. Also, the inhibition in assay [1] came out at 5.7%.

`Oc1ccccc1-c1cc(-c2ccc(C(F)(F)F)cc2)cc(-c2ccccc2O)n1`: the IC50 with HCT-15, in the assay on HeLa, with T47D and in the assay on DU-145 was more than 50 µM throughout. In assay [1], the inhibition worked out at 0%.

For `Oc1ccc(-c2cc(-c3cccc(C(F)(F)F)c3)cc(-c3ccc(O)cc3)n2)cc1`, the IC50 in the assay on HCT-15, in the assay with HeLa, with T47D and with DU-145 was more than 50 µM each time. Further, in assay [1], the inhibition is 0%.

With `Oc1ccccc1-c1cc(-c2ccc(OC(F)(F)F)cc2)cc(-c2ccccc2O)n1`, the IC50 with HCT-15 was more than 50 µM; in the assay on HeLa it was more than 50 µM; with T47D, more than 50 µM; in the assay with DU-145, 20.3 µM. Further, the inhibition in assay [1] stood at 0%.

As to `Oc1cccc(-c2cc(-c3ccc(OC(F)(F)F)cc3)cc(-c3cccc(O)c3)n2)c1`, the IC50 was more than 50 µM with HCT-15, 18.7 µM with HeLa, 9.82 µM in the assay with T47D and more than 50 µM with DU-145. Besides, in assay [1], the inhibition was found to be 6%.

Consider `Oc1ccc(-c2cc(-c3ccc(OC(F)(F)F)cc3)cc(-c3cccc(O)c3)n2)cc1`, for which the IC50 stood at 1.38 µM in the assay on HCT-15, 27.8 µM in the assay with HeLa, 18.9 µM in the assay on T47D and 18.1 µM in the assay on DU-145. The inhibition in assay [1] was 4.4%.

For the compound `Oc1ccc(-c2cc(-c3cccc(F)c3)cc(-c3ccc(O)cc3)n2)cc1`, the IC50 in the assay on HCT-15 is more than 50 µM; in the assay on HeLa, more than 50 µM; in the assay with T47D, more than 50 µM; in the assay on DU-145, 9.29 µM. In addition, the inhibition in assay [1] was 0%.

Regarding `Oc1ccc(-c2cc(-c3ccc(OC(F)(F)F)cc3)cc(-c3ccccc3O)n2)cc1`, the half-inhibitory concentration (IC50) in the assay with HCT-15, in the assay on HeLa, in the assay with T47D and with DU-145 was more than 50 µM throughout. Further, the inhibition in assay [1] stood at 0%.

For `Oc1cccc(-c2cc(-c3ccccc3F)cc(-c3ccccc3O)n2)c1`, the concentration for half-maximal inhibition (IC50) was 8.47 µM in the assay with HCT-15, 31.1 µM in the assay on HeLa, 24.2 µM in the assay with T47D and 35.6 µM in the assay on DU-145. Also, the inhibition in assay [1] was 1%.

For `Oc1cccc(-c2cc(-c3cccc(OC(F)(F)F)c3)cc(-c3ccccc3O)n2)c1`, the IC50 is 2.74 µM in the assay with HCT-15, 14.9 µM in the assay on HeLa, 5.39 µM in the assay with T47D and more than 50 µM with DU-145. Further, in assay [1], the inhibition is 0%.
